Where two headings read alike, the source gives them in different places.
How the values were obtained:
HCT116 cancer cells = test: In vitro combination study with Compound 1, Cell Titer-Glo (ATP) cell viability, 72 h; type: cell-based;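 also: combination call from 10×10 dose matrices in duplicate, graded by synergy, with percent activity per well relative to DMSO vehicle controls on the same plate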
Description: (§2) Each combination pair was evaluated in an individual 384-well plate which contained variable doses of both compounds as single agents, as well as two, ten-by-ten matrices (in duplicate) that contained mixtures of the two test compounds. In brief, compounds were added to the cell test plates 16 hours after cell plating and then assessed for viability 72 hours later. Continuous cultures of tumor cells were maintained under standard cell culturing conditions (i.e. in a humidified chamber set at 37° C., containing atmosphere 5% carbon dioxide). […] Seventy-two hours after compound addition, ATP levels were measured to assess cell viability. Plating densities were chosen to ensure optimal linear growth over the 72 hour period.
(§3) Compound dilution and compound delivery to the assay plates were done on HighRes Robotic System (HighRes Biosolutions, Woburn, Mass., USA) with Echo™ Liquid Handler (Labcyte, Sunnyvale, Calif., USA). […] Next, these were used for compound transfer into cell assay plates. All wells were back-filled to give a constant percentage of DMSO.
(§4) The final DMSO concentration was held constant in all wells across the plate and was maintained at less than 0.5%. […] Cells treated with vehicle (DMSO) in two rows, or single compound serial dilutions in one plate columns/row served as the untreated control and single compound controls, respectively.
(§5) Compound activity in A549, COLO205, H460, HCT116, SW48, SW620 cancer cell lines was assessed using Cell Titer-Glo® (Promega [Madison, Wis., USA]). After 72 hours incubation, the plates were treated as per package insert protocol for the Promega Luminescence ATP Detection Systems. Briefly, 25 μL of cell lysis/substrate solution (provided in kit form) was added to each well and the plate was incubated at room temperature for 10 minutes. Luminescence was measured using a PHERAstar multi-label counter (BMG Labtech [Ortenberg, Germany]) or LEADseeker (GE Healthcare Life Sciences [Piscataway, N.J., USA]).
(§6) Numerical luminescence values were analyzed to generate EC50 curves and evaluate synergy. Raw Data reader files were uploaded along with automation workfiles that defined the plate and well contents. Percent activities were calculated for each well versus plate controls.
(§7) Each plate representing a single drug combination was analyzed separately. First, the viability measurements were normalized by scaling the data so that the median of the negative controls was 0 and the median of the positive controls was 100.
(§8) For the combination analysis, a response surface model was used to describe the relationship between the normalized viability and the drug concentrations. The data were fit to the model by minimizing the residual sum of squares. Based on the fitted response surface, plots of constant viability, called isobolograms, were produced.
(§9) The Combination Index and Nonlinear Blending were used as measures of drug synergy. To calculate Combination Index the 50% isobologram (which is the dose contour that has 50% viability) was used. […] A standard procedure was created to produce a call in order to characterize the viability effects for each combination (synergy, additivity, subadditivity, or antagonism). If the Combination Index existed then these measures were used to make the call.

SW48 cancer cells = test: as above; type: cell-based
Description: as §2
Compound dilution and compound delivery to the assay plates were done on HighRes Robotic System (HighRes Biosolutions, Woburn, Mass., USA) with Echo™ Liquid Handler (Labcyte, Sunnyvale, Calif., USA). First, 384-well low dead volume (LDV) plates containing DMSO (Appendix B) and 10 mM compound stock solutions were used to create the required intermediate compound dilution plates. Next, these were used for compound transfer into cell assay plates. All wells were back-filled to give a constant percentage of DMSO.
as §4, §5, §6, §7, §8, §9

H460 cancer cells = test: as above; type: cell-based
CALU6 (Lung) = test: In vitro combination study for selected compounds, additional cell lines; type: cell-based; settings: drug combined with Compound 1
Description: (§1) In vitro anti-proliferative effects of selected compounds were tested in additional cell lines, including ovarian cancer (SKOV3) and pancreatic cancer (MIA-PACA-2) cell lines.

H-1650 (Lung) = test: as above; type: cell-based; settings: drug combined with Compound 1
Description: as §1

[1] = tested on: ovarian cancer (SKOV3) cell line; test: as above; type: cell-based; settings: drug combined with Compound 1
Description: as §1

SW620 cancer cells = test: In vitro combination study with Compound 1, Cell Titer-Glo (ATP) cell viability, 72 h; type: cell-based;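 also: Ten-by-ten dose matrices of both drugs in 384-well plates, luminescent ATP read-out, synergy evaluated against single-agent and DMSO vehicle controls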
Description: as §2, §3, §4, §5, §6, §7, §8, §9

COLO205 cancer cells = test: as above; type: cell-based, human
[2] = DNA damaging agent combined with Compound 1, 72 h
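For Call, anti-proliferative effect of combination with Compound 1, COLO205 in this document: Ten-by-ten dose matrices of both agents in duplicate plus single-agent dilutions, luminescent ATP read-out, percent activity per well relative to DMSO vehicle wells, synergy call from these matrices.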
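For Call, anti-proliferative effect of combination with Compound 1, H460 in this document: Ten-by-ten dose matrices of both drugs alongside single-agent dilutions, luminescence read 72 hours after compound addition, percent activity per well versus vehicle (DMSO) plate controls.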

## N.N.[Cl][Pt][Cl] [Cisplatin]
HCT116 cancer cells; [2]
  Call, anti-proliferative effect of combination with Compound 1, HCT116: Synergy (0 to 0.7)
SW48 cancer cells; [2]
  Call, anti-proliferative effect of combination with Compound 1, SW48: Additivity (0.7 to 1.3)
H460 cancer cells; [2]
  Call, anti-proliferative effect of combination with Compound 1, H460: Synergy (0 to 0.7)
CALU6 (Lung)
  In vitro combination effect with Compound 1, Lung CALU6: Additive
H-1650 (Lung)
  In vitro combination effect with Compound 1, Lung H-1650: Additive
[1]
  In vitro combination effect with Compound 1, Ovary SKOV3: Additive
SW620 cancer cells; [2]
  Call, anti-proliferative effect of combination with Compound 1, SW620: Synergy (0 to 0.7)

## O=C1[O][Pt]2([NH][C@@H]3CCCC[C@H]3[NH]2)[O]C1=O [Oxaliplatin]
HCT116 cancer cells
  Call, anti-proliferative effect of combination with Compound 1, HCT116: Additivity (key: Inconclusive: Any; Additivity: 0.7 to 1.3; Synergy: 0 to 0.7; Subadditivity: 1.3 to 2; Antagonism: >2)
SW48 cancer cells
  Call, anti-proliferative effect of combination with Compound 1, SW48: Additivity (key: Inconclusive: Any; Additivity: 0.7 to 1.3; Synergy: 0 to 0.7; Subadditivity: 1.3 to 2; Antagonism: >2)
H460 cancer cells
  Call, anti-proliferative effect of combination with Compound 1, H460: Additivity (key: Inconclusive: Any; Additivity: 0.7 to 1.3; Synergy: 0 to 0.7; Subadditivity: 1.3 to 2; Antagonism: >2)
CALU6 (Lung)
  In vitro combination effect with Compound 1, Lung CALU6: Additive
H-1650 (Lung)
  In vitro combination effect with Compound 1, Lung H-1650: Additive
[1]
  In vitro combination effect with Compound 1, Ovary SKOV3: Additive
COLO205 cancer cells
  Call, anti-proliferative effect of combination with Compound 1, COLO205: Synergy (key: Inconclusive: Any; Additivity: 0.7 to 1.3; Synergy: 0 to 0.7; Subadditivity: 1.3 to 2; Antagonism: >2)
SW620 cancer cells
  Call, anti-proliferative effect of combination with Compound 1, SW620: Synergy (key: Inconclusive: Any; Additivity: 0.7 to 1.3; Synergy: 0 to 0.7; Subadditivity: 1.3 to 2; Antagonism: >2)

Reference: patent publication US20220323443A1, “COMBINATION THERAPY FOR CANCER TREATMENT” (TAKEDA PHARMACEUTICAL COMPANY LIMITED, priority 2019, published 2022)
